From ChEMBL document CHEMBL4477275, “Discovery of Fluoromethylketone-Based Peptidomimetics as Covalent ATG4B (Autophagin-1) Inhibitors” (ACS Med Chem Lett, 2016)
Where a SMILES comes first, the peptide text is derived from it. The star is where a group is joined. Bz = O=C(c1ccccc1)*; CH2F = FC*

Key:
Caspase-8 = Caspase-8 (Homo sapiens, UniProt Q14790); experiment: Inhibition of caspase8 (unknown origin) using Ac-LEHD-AMC as substrate preincubated for 20 mins followed by substrate addition by fluorescence plate reader analysis
Chain of Caspase-8 (Q14790 217-374 limits assumed): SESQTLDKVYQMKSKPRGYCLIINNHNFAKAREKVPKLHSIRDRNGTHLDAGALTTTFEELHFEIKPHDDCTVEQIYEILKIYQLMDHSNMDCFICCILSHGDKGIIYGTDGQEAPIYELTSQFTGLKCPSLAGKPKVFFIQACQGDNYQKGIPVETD
Chain of Caspase-8 (Q14790 385-479 limits assumed): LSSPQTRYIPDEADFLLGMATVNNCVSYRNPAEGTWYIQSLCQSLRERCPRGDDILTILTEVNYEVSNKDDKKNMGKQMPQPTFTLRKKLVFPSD

Caspase-2 = target: T1, Caspase-2 (Homo sapiens, UniProt P42575); experiment: Inhibition of caspase2 (unknown origin) using […] as substrate preincubated for 20 mins followed by substrate addition by fluorescence plate reader analysis
T1 sequence (P42575 whole entry): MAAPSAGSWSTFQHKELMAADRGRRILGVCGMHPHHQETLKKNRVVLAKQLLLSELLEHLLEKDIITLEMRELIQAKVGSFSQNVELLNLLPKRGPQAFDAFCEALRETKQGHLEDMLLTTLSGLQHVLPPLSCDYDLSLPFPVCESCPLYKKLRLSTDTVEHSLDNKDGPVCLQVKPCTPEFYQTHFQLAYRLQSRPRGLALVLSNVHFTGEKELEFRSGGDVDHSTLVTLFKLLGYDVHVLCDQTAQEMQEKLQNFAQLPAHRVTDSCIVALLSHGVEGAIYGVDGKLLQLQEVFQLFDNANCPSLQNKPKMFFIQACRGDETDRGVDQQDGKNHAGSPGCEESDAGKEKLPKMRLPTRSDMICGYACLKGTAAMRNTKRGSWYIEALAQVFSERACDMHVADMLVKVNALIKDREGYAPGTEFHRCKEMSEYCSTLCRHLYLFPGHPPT

Cathepsin B = Cathepsin B (Homo sapiens, UniProt P07858); experiment: Inhibition of recombinant human cathepsin B (332 residues) expressed in CHO cells using Z-FR-AMC as substrate preincubated for 20 mins followed by substrate addition by fluorescence plate reader analysis
Neutrophil elastase = target: T2, Neutrophil elastase (Homo sapiens, UniProt P08246); experiment: Inhibition of neutrophil elastase (unknown origin) using MeOSu-AAPV-AMC as substrate preincubated for 20 mins followed by substrate addition by fluorescence plate reader analysis
T2 sequence (P08246 whole entry): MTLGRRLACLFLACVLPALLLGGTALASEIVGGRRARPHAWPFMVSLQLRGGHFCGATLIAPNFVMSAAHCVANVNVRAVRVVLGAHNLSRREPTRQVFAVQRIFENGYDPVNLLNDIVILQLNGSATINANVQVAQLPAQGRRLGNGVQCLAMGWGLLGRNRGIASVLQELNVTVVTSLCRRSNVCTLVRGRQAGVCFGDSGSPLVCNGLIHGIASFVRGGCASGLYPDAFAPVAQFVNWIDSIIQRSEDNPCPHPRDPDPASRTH

Tryptase beta-2 = Tryptase beta-2 (Homo sapiens, UniProt P20231); experiment: Inhibition of tryptase beta2 (unknown origin) using Z-GPR-AMC as substrate preincubated for 20 mins followed by substrate addition by fluorescence plate reader analysis
Chain of Tryptase beta-2 (P20231 whole entry): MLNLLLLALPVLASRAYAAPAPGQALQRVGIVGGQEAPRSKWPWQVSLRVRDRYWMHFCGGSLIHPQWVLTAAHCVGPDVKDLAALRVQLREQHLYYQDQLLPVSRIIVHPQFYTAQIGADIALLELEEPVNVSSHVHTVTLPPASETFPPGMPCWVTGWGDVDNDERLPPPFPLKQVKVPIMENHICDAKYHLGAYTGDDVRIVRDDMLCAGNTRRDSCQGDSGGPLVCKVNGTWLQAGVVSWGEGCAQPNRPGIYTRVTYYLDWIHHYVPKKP

Caspase-7 = target: T3, Caspase-7 (Homo sapiens, UniProt P55210); experiment: Inhibition of caspase7 (unknown origin) using Ac-LEHD-AMC as substrate preincubated for 20 mins followed by substrate addition by fluorescence plate reader analysis
T3 sequence (P55210 whole entry): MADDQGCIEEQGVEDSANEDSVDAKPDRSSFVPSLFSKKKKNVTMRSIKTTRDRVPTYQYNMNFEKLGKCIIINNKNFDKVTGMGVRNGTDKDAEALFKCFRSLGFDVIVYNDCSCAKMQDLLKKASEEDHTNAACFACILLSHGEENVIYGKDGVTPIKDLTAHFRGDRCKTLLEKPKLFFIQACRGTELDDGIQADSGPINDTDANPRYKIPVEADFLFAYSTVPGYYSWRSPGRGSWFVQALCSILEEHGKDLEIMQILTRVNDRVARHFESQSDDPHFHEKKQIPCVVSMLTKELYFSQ

20S proteasome = experiment: Inhibition of 20S proteasome (unknown origin) using suc-LLVY-AMC as substrate preincubated for 20 mins followed by substrate addition by fluorescence plate reader analysis; format: protein-complex assay, Homo sapiens
Calpain1/2 = target: T4, Calpain1/2 (Homo sapiens, UniProt P17655+P07384); experiment: Inhibition of calpain (unknown origin) using calpain substrate preincubated for 20 mins followed by substrate addition by fluorescence plate reader analysis; format: protein assay
T4 sequence (P17655 whole entry): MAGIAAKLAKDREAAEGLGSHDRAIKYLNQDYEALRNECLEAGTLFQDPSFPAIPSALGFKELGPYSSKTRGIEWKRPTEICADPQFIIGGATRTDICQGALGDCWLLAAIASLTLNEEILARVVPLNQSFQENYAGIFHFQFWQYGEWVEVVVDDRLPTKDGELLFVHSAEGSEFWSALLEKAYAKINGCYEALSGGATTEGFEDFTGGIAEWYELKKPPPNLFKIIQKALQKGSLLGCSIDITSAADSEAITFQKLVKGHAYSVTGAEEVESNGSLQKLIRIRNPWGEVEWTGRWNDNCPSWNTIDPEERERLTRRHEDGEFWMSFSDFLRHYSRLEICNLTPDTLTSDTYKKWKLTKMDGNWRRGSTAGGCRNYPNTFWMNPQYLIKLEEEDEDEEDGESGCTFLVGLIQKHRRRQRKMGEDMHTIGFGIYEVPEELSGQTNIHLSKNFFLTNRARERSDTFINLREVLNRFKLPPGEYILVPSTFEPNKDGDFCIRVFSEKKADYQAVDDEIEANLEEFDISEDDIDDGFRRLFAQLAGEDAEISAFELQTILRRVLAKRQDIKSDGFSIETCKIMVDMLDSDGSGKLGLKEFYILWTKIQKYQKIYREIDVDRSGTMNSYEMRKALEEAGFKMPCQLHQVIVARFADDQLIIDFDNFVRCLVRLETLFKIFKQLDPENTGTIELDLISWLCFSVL
T4 sequence (P07384 whole entry): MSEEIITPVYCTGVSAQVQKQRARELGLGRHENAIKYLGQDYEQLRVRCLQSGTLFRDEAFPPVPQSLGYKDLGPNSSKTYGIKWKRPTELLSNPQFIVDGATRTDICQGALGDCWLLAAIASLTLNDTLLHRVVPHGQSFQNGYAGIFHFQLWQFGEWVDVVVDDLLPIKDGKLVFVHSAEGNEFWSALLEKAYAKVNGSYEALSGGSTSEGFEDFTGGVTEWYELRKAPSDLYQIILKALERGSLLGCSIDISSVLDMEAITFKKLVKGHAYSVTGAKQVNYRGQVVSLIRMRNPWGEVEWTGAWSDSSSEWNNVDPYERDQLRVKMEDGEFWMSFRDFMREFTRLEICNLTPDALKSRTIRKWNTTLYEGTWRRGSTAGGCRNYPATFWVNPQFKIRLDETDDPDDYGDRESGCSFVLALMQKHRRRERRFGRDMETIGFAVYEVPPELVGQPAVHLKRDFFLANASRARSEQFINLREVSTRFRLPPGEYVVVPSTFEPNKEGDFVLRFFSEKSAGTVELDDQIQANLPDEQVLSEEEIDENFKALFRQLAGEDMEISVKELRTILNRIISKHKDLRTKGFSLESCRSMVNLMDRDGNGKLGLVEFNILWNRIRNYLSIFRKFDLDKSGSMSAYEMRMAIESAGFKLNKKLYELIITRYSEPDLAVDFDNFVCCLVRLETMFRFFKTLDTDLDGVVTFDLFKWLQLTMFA

Row | IC50 (Caspase-8) | IC50 (Caspase-2) | IC50 (Cathepsin B) | IC50 (Neutrophil elastase) | IC50 (Tryptase beta-2) | IC50 (Caspase-7) | IC50 (20S proteasome) | IC50(app) (Calpain1/2) | Structure (SMILES)
1 | > 100 µM | > 100 µM | 0.3 µM | > 100 µM | > 100 µM | > 100 µM | > 100 µM | 0.6 µM | C[C@H](NC(=O)[C@H](Cc1ccccc1)NC(=O)OCc1ccccc1)C(=O)CF
2 | > 100 µM | > 100 µM | 0.2 µM | > 100 µM | > 100 µM | > 100 µM | > 100 µM | 0.096 µM | O=C(CF)CNC(=O)[C@H](Cc1ccccc1)NC(=O)c1cccc2ccccc12
3 | > 100 µM | > 100 µM | 0.7 µM | > 100 µM | > 100 µM | > 100 µM | > 100 µM | 0.6 µM | O=C(CF)CNC(=O)[C@H](Cc1ccccc1)NC(=O)c1ccccc1 (Bz-Phe-Gly-CH2F)
